US12428406B2 (PMV Pharmaceuticals, Inc., priority 2019, dated 2025)

biological target: T1, p53 Y220C (Homo sapiens, UniProt P04637, Y220C); assay: In vitro DNA binding activity assay (HTRF / TR-FRET): stabilization of p53 Y220C and increase of its DNA binding activity; format: biochemical; conditions: recombinant His-tagged p53 Y220C DNA binding domain (aa 94-312), biotin-labeled consensus DNA, incubated at 27° C. or 29° C. for 60 min
T1 construct: The recombinant protein was a truncation mutant containing only amino acids 94-312 of p53; made in house; host or cells: E. coli
T1 sequence (P04637 94-312, change not shown): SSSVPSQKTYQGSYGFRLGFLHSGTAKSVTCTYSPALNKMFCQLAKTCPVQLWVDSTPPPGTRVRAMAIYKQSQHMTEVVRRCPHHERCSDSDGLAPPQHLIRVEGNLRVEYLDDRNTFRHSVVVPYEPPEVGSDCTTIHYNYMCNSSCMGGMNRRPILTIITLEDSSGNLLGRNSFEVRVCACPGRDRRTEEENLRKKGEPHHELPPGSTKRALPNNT
Summary of the method: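 Compound effect on DNA binding of recombinant His-p53 Y220C (E. coli) to biotin-labeled consensus DNA, expressed as SC150, the concentration giving 50% increase versus untreated. Serial 3-fold DMSO dilutions of 4.5 mM stocks; room-temperature steps of 15 then 20 min.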

SC150 (concentration of the compound required to increase the DNA binding activity by 50%), + (+ = 0 μM ≤ SC150 < 0.05 μM):
COCCNC(=O)c1ccc(NCC#Cc2cc3c(N[C@@H]4CCN(C)C[C@@H]4F)cccc3n2CC(F)(F)F)c(OC)c1 [Compound 945A, 4-{[3-(4-{[(3S,4R)-3-fluoro-1-methylpiperidin-4-yl]amino}-1-(2,2,2-trifluoroethyl)-1H-indol-2-yl)prop-2-yn-1-yl]amino}-3-methoxy-N-(2-methoxyethyl)benzamide]
CCN(CC)CCNC(=O)c1ccc(NCC#Cc2cc3c(N[C@@H]4CCN(C)C[C@@H]4F)cccc3n2CC(F)(F)F)c(OC)c1 [Compound 946A]
COc1cc(C(=O)NCCO)ccc1NCC#Cc1cc2c(N[C@@H]3CCN(C)C[C@@H]3F)cccc2n1CC(F)(F)F [Compound 947A]
COc1cc(C(=O)N[C@@H]2[C@@H](O)[C@H](O)[C@@H](CO)O[C@H]2O)ccc1NCC#Cc1cc2c(N[C@@H]3CCN(C)C[C@@H]3F)cccc2n1CC(F)(F)F [Compound 948A, 4-((3-(4-(((3S,4R)-3-fluoro-1-methylpiperidin-4-yl)amino)-1-(2,2,2-trifluoroethyl)-1H-indol-2-yl)prop-2-yn-1-yl)amino)-3-methoxy-N-((2R,3R,4R,5S,6R)-2,4,5-trihydroxy-6-(hydroxymethyl)tetrahydro-2H-pyran-3-yl)benzamide]
COc1cc(C(=O)N[C@H](C)CO)ccc1NCC#Cc1cc2c(N[C@@H]3CCN(C)C[C@@H]3F)cccc2n1CC(F)(F)F [Compound 950A, 4-{[3-(4-{[(3S,4R)-3-fluoro-1-methylpiperidin-4-yl]amino}-1-(2,2,2-trifluoroethyl)-1H-indol-2-yl)prop-2-yn-1-yl]amino}-N-[(2R)-1-hydroxypropan-2-yl]-3-methoxybenzamide]
CN1CC[C@@H](Nc2cccc3c2cc(C#CCNC(=O)C2CC2)n3CC(F)(F)F)[C@@H](F)C1 [Compound 951A, N-[3-(4-{[(3S,4R)-3-fluoro-1-methylpiperidin-4-yl]amino}-1-(2,2,2-trifluoroethyl)-1H-indol-2-yl)prop-2-yn-1-yl]cyclopropanecarboxamide]
CN1CC[C@@H](Nc2cccc3c2cc(C#CCNC(=O)[C@@H]2C[C@H]2c2ccccc2)n3CC(F)(F)F)[C@@H](F)C1 [Compound 952A, (1R,2R)—N-[3-(4-{[(3S,4R)-3-fluoro-1-methylpiperidin-4-yl]amino}-1-(2,2,2-trifluoroethyl)-1H-indol-2-yl)prop-2-yn-1-yl]-2-phenylcyclopropane-1-carboxamide]
CN1CC[C@@H](Nc2cccc3c2cc(C#CCNC(=O)c2ccn(C)c2)n3CC(F)(F)F)[C@@H](F)C1 [Compound 953A, N-[3-(4-{[(3S,4R)-3-fluoro-1-methylpiperidin-4-yl]amino}-1-(2,2,2-trifluoroethyl)-1H-indol-2-yl)prop-2-yn-1-yl]-1-methyl-1H-pyrrole-3-carboxamide]
CCn1ccc(C(=O)NCC#Cc2cc3c(N[C@@H]4CCN(C)C[C@@H]4F)cccc3n2CC(F)(F)F)c1 [Compound 954A, 1-ethyl-N-[3-(4-{[(3S,4R)-3-fluoro-1-methylpiperidin-4-yl]amino}-1-(2,2,2-trifluoroethyl)-1H-indol-2-yl)prop-2-yn-1-yl]-1H-pyrrole-3-carboxamide]
CN1CC[C@@H](Nc2cccc3c2cc(C#CCNC(=O)c2ccn(C(C)(C)C)c2)n3CC(F)(F)F)[C@@H](F)C1 [Compound 955A, 1-tert-butyl-N-[3-(4-{[(3S,4R)-3-fluoro-1-methylpiperidin-4-yl]amino}-1-(2,2,2-trifluoroethyl)-1H-indol-2-yl)prop-2-yn-1-yl]-1H-pyrrole-3-carboxamide]
COC(=O)[C@H](CCC(N)=O)NC(=O)c1ccc(NCC#Cc2cc3c(N[C@@H]4CCN(C)C[C@@H]4F)cccc3n2CC(F)(F)F)c(OC)c1 [Compound 956A, methyl (2S)-4-carbamoyl-2-[(4-{[3-(4-{[(3S,4R)-3-fluoro-1-methylpiperidin-4-yl]amino}-1-(2,2,2-trifluoroethyl)-1H-indol-2-yl)prop-2-yn-1-yl]amino}-3-methoxyphenyl)formamido]butanoate]
COc1cc(C(=O)NC[C@@H](C)O)ccc1NCC#Cc1cc2c(N[C@@H]3CCN(C)C[C@@H]3F)cccc2n1CC(F)(F)F [Compound 957A, 4-((3-(4-(((3S,4R)-3-fluoro-1-methylpiperidin-4-yl)amino)-1-(2,2,2-trifluoroethyl)-1H-indol-2-yl)prop-2-yn-1-yl)amino)-N—((R)-2-hydroxypropyl)-3-methoxybenzamide]
COCC(O)CNC(=O)c1ccc(NCC#Cc2cc3c(N[C@@H]4CCN(C)C[C@@H]4F)cccc3n2CC(F)(F)F)c(OC)c1 (stereo partly drawn) [Compound 960A]
COc1cc(C(=O)NC[C@H](C)O)ccc1NCC#Cc1cc2c(N[C@@H]3CCN(C)C[C@@H]3F)cccc2n1CC(F)(F)F [Compound 961A, 4-{[3-(4-{[(3S,4R)-3-fluoro-1-methylpiperidin-4-yl]amino}-1-(2,2,2-trifluoroethyl)-1H-indol-2-yl)prop-2-yn-1-yl]amino}-N-[(2S)-2-hydroxypropyl]-3-methoxybenzamide]
COc1cc(C(=O)NC[C@H](O)CO)ccc1NCC#Cc1cc2c(N[C@@H]3CCN(C)C[C@@H]3F)cccc2n1CC(F)(F)F [Compound 964A, N-[(2S)-2,3-dihydroxypropyl]-4-{[3-(4-{[(3S,4R)-3-fluoro-1-methylpiperidin-4-yl]amino}-1-(2,2,2-trifluoroethyl)-1H-indol-2-yl)prop-2-yn-1-yl]amino}-3-methoxybenzamide]
COc1cc(C(=O)NC(CCO)CCO)ccc1NCC#Cc1cc2c(N[C@@H]3CCN(C)C[C@@H]3F)cccc2n1CC(F)(F)F [Compound 965A, N-(1,5-dihydroxypentan-3-yl)-4-{[3-(4-{[(3S,4R)-3-fluoro-1-methylpiperidin-4-yl]amino}-1-(2,2,2-trifluoroethyl)-1H-indol-2-yl)prop-2-yn-1-yl]amino}-3-methoxybenzamide]
COc1cc(C(=O)NCC(COC(=O)C(C)C)OC(=O)C(C)C)ccc1NCC#Cc1cc2c(N[C@@H]3CCN(C)C[C@@H]3F)cccc2n1CC(F)(F)F (stereo partly drawn) [Compound 967A, 1-[(4-{[3-(4-{[(3S,4R)-3-fluoro-1-methylpiperidin-4-yl]amino}-1-(2,2,2-trifluoroethyl)-1H-indol-2-yl)prop-2-yn-1-yl]amino}-3-methoxyphenyl)formamido]-3-[(2-methylpropanoyl)oxy]propan-2-yl 2-methylpropanoate]
COc1cc(C(=O)NCC2COC(=O)O2)ccc1NCC#Cc1cc2c(N[C@@H]3CCN(C)C[C@@H]3F)cccc2n1CC(F)(F)F (stereo partly drawn) [Compound 968A, 4-{1[3-(4-{1[(3S,4R)-3-fluoro-1-methylpiperidin-4-yl]amino}-1-(2,2,2-trifluoroethyl)-1H-indol-2-yl)prop-2-yn-1-yl]amino}-3-methoxy-N-[(2-oxo-1,3-dioxolan-4-yl)methyl]benzamide]
COc1cc(C(=O)NCCS(C)(=O)=O)ccc1NCC#Cc1cc2c(N[C@@H]3CCN(C)C[C@@H]3F)cccc2n1CC(F)(F)F [Compound 969A, 4-{[3-(4-{[(3S,4R)-3-fluoro-1-methylpiperidin-4-yl]amino}-1-(2,2,2-trifluoroethyl)-1H-indol-2-yl)prop-2-yn-1-yl]amino}-N-(2-methanesulfonylethyl)-3-methoxybenzamide]
COc1cc(C(=O)NCC(COC(C)=O)OC(C)=O)ccc1NCC#Cc1cc2c(N[C@@H]3CCN(C)C[C@@H]3F)cccc2n1CC(F)(F)F (stereo partly drawn) [Compound 970A, 1-(acetyloxy)-3-[(4-{[3-(4-{[(3S,4R)-3-fluoro-1-methylpiperidin-4-yl]amino}-1-(2,2,2-trifluoroethyl)-1H-indol-2-yl)prop-2-yn-1-yl]amino}-3-methoxyphenyl)formamido]propan-2-yl acetate]
CCC(=O)OCC(CNC(=O)c1ccc(NCC#Cc2cc3c(N[C@@H]4CCN(C)C[C@@H]4F)cccc3n2CC(F)(F)F)c(OC)c1)OC(=O)CC (stereo partly drawn) [Compound 971A, 1-[(4-{[3-(4-{[(3S,4R)-3-fluoro-1-methylpiperidin-4-yl]amino}-1-(2,2,2-trifluoroethyl)-1H-indol-2-yl)prop-2-yn-1-yl]amino}-3-methoxyphenyl)formamido]-3-(propanoyloxy)propan-2-ylpropanoate]
